Measurements reported in PMC6274026 (Molecules, 2016).
Several values for one entry are separate records, joined by “and”; a condition that tells them apart may be missing. Equal values may be shown once. Read-outs that look alike come from different tables or passages of the source.

Experiments:
MCF-10A [1] = test: Clonogenicity (recovery) assay, 72 h post-treatment, SRB; conditions: for percentage of recovery: 0.08 µg/mL, 72 h post-treatment; for effect on proliferation and recovery after treatment: in words
BT-549 [2] = conditions: for percentage of survival: 72 h; for Potency compared to control POD: BT-549, relative to POD; for Potency compared to control VP-16: BT-549, relative to VP-16; for Selectivity index: IC50 MCF-10A / IC50 BT-549; for IC50: read-out: Cytotoxic activity IC50, BT-549, 72 h, mean of three independent experiments ± S.D.
MDA-MB-231 [3] = conditions: for Selectivity index: IC50 MCF-10A / IC50 MDA-MB-231; for percentage of survival: 72 h; for Potency compared to control POD: MDA-MB-231, relative to POD; for Potency compared to control VP-16: MDA-MB-231, relative to VP-16; for IC50: read-out: Cytotoxic activity IC50, MDA-MB-231, 72 h, mean of three independent experiments ± S.D.
[4] = Water solubility (observation in culture medium); type: physicochemical; conditions: in words
MCF-7 [5] = conditions: for Selectivity index: IC50 MCF-10A / IC50 MCF-7; for percentage of survival: 72 h; for Potency compared to control POD: MCF-7, relative to POD; for Potency compared to control VP-16: MCF-7, relative to VP-16; for IC50: read-out: Cytotoxic activity IC50, MCF-7, 72 h, mean of three independent experiments ± S.D.
MDA-MB-231 [6] = test: Clonogenicity (recovery) assay, 72 h post-treatment, SRB; conditions: for percentage of recovery: 72 h post-treatment; for effect on proliferation and recovery after treatment: in words
in vitro = conditions: human
BT-549 [7] = test: Clonogenicity (recovery) assay, 72 h post-treatment, SRB; conditions: for percentage of recovery: 72 h post-treatment; for effect on proliferation and recovery after treatment: in words
MCF-7 [8] = test: as above; conditions: for percentage of recovery: 72 h post-treatment; for effect on proliferation and recovery after treatment: in words
MCF-10A [9] = conditions: for percentage of survival: 0.08 µg/mL, 72 h; for Potency compared to control POD: relative to POD; for Potency compared to control VP-16: relative to VP-16
[10] = tested on: MCF-7, MDA-MB-231, BT-549, and MCF-10A; test: Cytotoxicity, clonogenicity and selectivity over the panel of breast cell lines; type: cell-based, human; conditions: in words, SI ≥ 10 selective
anthrax lethal toxin = conditions: qHTS, ME-180 cells, in words; cited from earlier work
[11] = tested on: human protein tyrosyl-DNA phosphodiesterase 1 (TDP1); set-up: method as in ref 29 = [29]; 29. NCBI, National Center for Biotechnology Information PubChem BioAssay Database 2013 AID=686981 Available online: https://pubchem.ncbi.nlm.nih.gov/bioassay/686981 (accessed on 30 March 2016); conditions: qHTS, DT40 cell line, in words; cited from earlier work
[12] = Cytotoxic activity IC50, MCF-10A, 72 h, mean of three independent experiments ± S.D.

| Structure (SMILES) | percentage of recovery (MCF-10A [1]; MCF-10A) | percentage of survival (BT-549 [2]; BT-549, 0.08 µg/mL) | Potency compared to control POD (BT-549 [2]) | Potency compared to control VP-16 (BT-549 [2]) | Selectivity index (BT-549 [2]) | Selectivity index (MDA-MB-231 [3]) | percentage of survival (MDA-MB-231 [3]; MDA-MB-231, 0.08 µg/mL) | percentage of survival (MDA-MB-231 [3]; MDA-MB-231, 0.4 µg/mL) | Potency compared to control POD (MDA-MB-231 [3]) | Potency compared to control VP-16 (MDA-MB-231 [3]) | IC50 (MDA-MB-231 [3]) | Selectivity index (MCF-7 [5]) | percentage of survival (MCF-7 [5]; MCF-7, 0.08 µg/mL) | Potency compared to control POD (MCF-7 [5]) | IC50 (MCF-7 [5]) | percentage of recovery (MDA-MB-231 [6]; MDA-MB-231, 0.4 µg/mL) | effect on proliferation and recovery after treatment (MDA-MB-231 [6]; MDA-MB-231, 10 and 2 µg/mL) | percentage of recovery (MCF-7 [8]; MCF-7, 0.08 µg/mL) | percentage of survival (MCF-10A [9]) | IC50 (BT-549 [2]) | also measured |
| --- | --- | --- | --- | --- | --- | --- | --- | --- | --- | --- | --- | --- | --- | --- | --- | --- | --- | --- | --- | --- | --- |
| COc1cc(C2=C3C(=O)OC[C@@H]3[C@@H](OC(C)=O)c3cc4c(cc32)OCO4)cc(OC)c1OC [Compound 4, 7′,8′-dehydroacetylpodophyllotoxin] | 160% ± 21% | 74% ± 7.4% | 0.086 | 2.6 and 2.604 | 7.62 | 2.90 | 93% ± 6.9% | 57% ± 1.4% | 0.151 | 0.242 | 160 nM and 161 nM | 1.32 | 96% ± 13.5% | 0.050 | 350 nM and 353 nM | 75% ± 12.2% | inhibitory effect on the survival and recovery | 177% ± 15.6% | about 55% ± 17.2% | – | percentage of survival (BT-549 [2]; BT-549, 0.4 µg/mL): 48% ± 8.8%; water solubility [4]: low water solubility; percentage of survival (MCF-7 [5]; MCF-7, 0.4 µg/mL): 21% ± 7.2%; percentage of survival (MCF-7 [5]; MCF-7, 2 µg/mL): 11% ± 7.6%; Potency compared to control VP-16 (MCF-7 [5]): 0.351; percentage of recovery (MDA-MB-231 [6]; MDA-MB-231, 0.08 µg/mL): 180% ± 13.5%; IC50 at 72 h (in vitro; [12]): 468 ± 2 nM; percentage of recovery (BT-549 [7]; BT-549, 0.08 µg/mL): 176% ± 18%; percentage of recovery (BT-549 [7]; BT-549, 0.4 µg/mL): 98% ± 27.9%; effect on proliferation and recovery after treatment (BT-549 [7]; BT-549, 10 and 2 µg/mL): inhibitory effect on the survival and recovery; percentage of recovery (MCF-7 [8]; MCF-7, 0.4 µg/mL): 57% ± 14.5%; percentage of recovery (MCF-7 [8]; MCF-7, 2 µg/mL): 29% ± 0.7%; Potency compared to control POD (MCF-10A [9]): 0.042; Potency compared to control VP-16 (MCF-10A [9]): 0.100 |
| COc1cc([C@@H]2c3cc4c(cc3[C@@H](O[C@@H]3O[C@@H]5CO[C@@H](C)O[C@H]5[C@H](O)[C@H]3O)[C@H]3COC(=O)[C@H]23)OCO4)cc(OC)c1O [VP-16, etoposide, reference compound] | 79% ± 5.1% | 67% ± 7.5% | – | – | 0.29 | 1.20 | 82% ± 5.6% | 48% ± 2.4% | – | – | 38 ± 4 nM | 0.38 | 71% ± 20.7% | – | 124 ± 26 nM | 98% ± 16.1% | caused inhibition of proliferation and cell recovery | 183% ± 7.4% | 46% ± 2.8% | 160 ± 10 nM | effect on proliferation and recovery after treatment (MCF-10A [1]; MCF-10A, 10, 2, and 0.4 µg/mL): did not recover proliferation after treatment; percentage of recovery (MDA-MB-231 [6]; MDA-MB-231, 0.08 µg/mL): 160% ± 7.4%; selectivity in the selectivity analysis [10]: non-selective compound; IC50 at 72 h (in vitro; MCF-10A cells, Cytotoxic activity IC50, MCF-10A, 72 h, mean of three independent experiments ± S.D.): 47 ± 9 nM; percentage of recovery (BT-549 [7]; BT-549, 0.08 µg/mL): 101% ± 11.7%; effect on proliferation and recovery after treatment (BT-549 [7]; BT-549, 10, 2, and 0.4 µg/mL): did not recover proliferation after treatment; effect on proliferation and recovery after treatment (MCF-7 [8]; MCF-7, 10, 2, and 0.4 µg/mL): did not recover proliferation after treatment |
| COc1cc([C@@H]2c3cc4c(cc3[C@H](OC(C)=O)[C@H]3COC(=O)[C@H]23)OCO4)cc(OC)c1OC [Compound 2, acetylpodophyllotoxin] | 85% ± 4.5% | 96% ± 5.5% | 0.465 | 14.1 and 14.151 | – | 1.77 | 101% ± 5.7% | 21% ± 0.6% | 0.136 | 0.217 | 180 ± 3 nM | 2.42 | 121% ± 10.8% | 0.135 | 132 ± 17 nM | 36% ± 16.8% | completely inhibited proliferation and prevented recovery | 209% ± 12.4% | 61% ± 7.8% | 11 ± 4 nM | effect on proliferation and recovery after treatment (MCF-10A [1]; MCF-10A, 10, 2, and 0.4 µg/mL): dose-dependently inhibited the proliferation and the recovery of cells; percentage of survival (BT-549 [2]; BT-549, 0.4 µg/mL): 61% ± 10.6%; selectivity according to the selectivity criteria (SI ≥ 10 selective) (BT-549 [2]; BT-549 vs MCF-10A, in words): selective compound; Potency compared to control VP-16 (MCF-7 [5]): 0.942; percentage of recovery (MDA-MB-231 [6]; MDA-MB-231, 0.8 µg/mL): 194% ± 14.7%; IC50 at 72 h (in vitro; [12]): 318 ± 12 nM; percentage of recovery (BT-549 [7]; BT-549, 0.4 µg/mL): around 114% ± 18.5%; percentage of recovery (BT-549 [7]; BT-549, 0.8 µg/mL (same concentrations)): ~191% ± 27.1%; effect on proliferation and recovery after treatment (BT-549 [7]; BT-549, 10 and 2 µg/mL): completely inhibited proliferation and prevented recovery; effect on proliferation and recovery after treatment (MCF-7 [8]; MCF-7, 10, 2, and 0.4 µg/mL): dose-dependently inhibited the proliferation and the recovery of cells; effect on anthrax lethal toxin internalization (anthrax lethal toxin): interferes in the internalization process; inhibitory activity against TDP1 [11]: inhibitory activity; Potency compared to control POD (MCF-10A [9]): 0.062; Potency compared to control VP-16 (MCF-10A [9]): 0.147 |
| COc1cc([C@@H]2c3cc4c(cc3[C@H](O)[C@H]3COC(=O)[C@H]23)OCO4)cc(OC)c1OC [POD, Podophyllotoxin, reference compound] | – | – | – | – | – | 0.81 | – | – | – | – | 24 ± 6 nM | 1.11 | – | – | 18 ± 1 nM | – | – | – | – | 5 ± 1 nM | effect on proliferation and recovery after treatment (MCF-10A [1]; MCF-10A, different POD concentrations): arrest of cell proliferation, which persisted even after the toxic agent was removed; effect on proliferation and recovery after treatment (MDA-MB-231 [6]; MDA-MB-231, different POD concentrations): arrest of cell proliferation, which persisted even after the toxic agent was removed; selectivity in the selectivity analysis [10]: non-selective activity; IC50 at 72 h (in vitro): 20 ± 8 nM; effect on proliferation and recovery after treatment (BT-549 [7]; BT-549, different POD concentrations): arrest of cell proliferation, which persisted even after the toxic agent was removed; effect on proliferation and recovery after treatment (MCF-7 [8]; MCF-7, different POD concentrations): arrest of cell proliferation, which persisted even after the toxic agent was removed; survival (MCF-10A [9]; even at high concentrations (10, 2, 0.4, 0.08, and 0.016 µg/mL)): about 20% |
| COc1ccc([C@@H]2c3cc4c(c(OC)c3C[C@H]3COC(=O)[C@@H]32)OCO4)cc1OC [Compound 1, 5′-demethoxy-β-peltatin-A-methylether] | 83% ± 3.3% | 82% ± 15.7% | 0.004 | 0.126 | 0.11 | 0.06 | 96% ± 6.9% | 28% ± 3.1% | 0.010 | 0.016 | 2440 nM and 2400 nM | 0.02 | 130% ± 18.55% | 0.002 | 7220 nM and 7200 nM | 49% ± 18.6% | inhibited proliferation and blocked recovery | 172% ± 24.5% | 61% ± 7.9% | 1260 nM and 1200 nM and 1270 nM | effect on proliferation and recovery after treatment (MCF-10A [1]; MCF-10A, 10, 2, and 0.4 µg/mL): dose-dependent cytotoxic effect at concentrations of 10, 2, and 0.4 µg/mL, which persisted after removal of the treatment; Potency compared to control VP-16 (MCF-7 [5]): 0.017; percentage of recovery (MDA-MB-231 [6]; MDA-MB-231, 0.08 µg/mL): 184% ± 6.4%; IC50 at 72 h (in vitro; [12]): 130 nM; percentage of recovery (BT-549 [7]; BT-549, 0.08 µg/mL): 124% ± 9.7%; effect on proliferation and recovery after treatment (BT-549 [7]; BT-549, 10, 2, and 0.4 µg/mL): dose-dependent cytotoxic effect at concentrations of 10, 2, and 0.4 µg/mL, which persisted after removal of the treatment; effect on proliferation and recovery after treatment (MCF-7 [8]; MCF-7, 10, 2, and 0.4 µg/mL): dose-dependent cytotoxic effect at concentrations of 10, 2, and 0.4 µg/mL, which persisted after removal of the treatment; IC50 (MCF-10A [9]; read-out: Cytotoxic activity IC50, 72 h, mean of three independent experiments ± S.D.): 137 ± 15 nM; Potency compared to control POD (MCF-10A [9]): 0.144; Potency compared to control VP-16 (MCF-10A [9]): 0.341 |
